Results as given in ChEMBL document CHEMBL1154584, “Hachijodines A-G: seven new cytotoxic 3-alkylpyridine alkaloids from two marine sponges of the genera Xestospongia and amphimedon” (2000).

Tested on: P388
Assay: Cytotoxicity against mouse P388 cells
Assay type: functional

Row | SMILES | Activity
1 | CONCCCCCCCCCCC(C)Cc1cccnc1 (configuration not stated) [HACHIJODINE D] | 2.2 µg/mL
2 | CONCCCCCCCCCCCCc1cccnc1 [HACHIJODINE A] | 2.2 µg/mL
3 | CN(O)CCCCCCCCCCCCCc1cccnc1 [HACHIJODINE E] | 2.3 µg/mL
4 | CONCC(C)CCCCCCCCCCc1cccnc1 (configuration not stated) [HACHIJODINE C] | 2.2 µg/mL
5 | CONCCC(C)CCCCCCCCCc1cccnc1 (configuration not stated) [HACHIJODINE B] | 2.2 µg/mL
6 | CN(O)CCCCCCCC/C=C\C#CCCCCc1cccnc1 [HACHIJODINE G] | 1 µg/mL
7 | CN(O)CCCCCCCCC#CCCCCc1cccnc1 [HACHIJODINE F] | 1 µg/mL
